ChEMBL document CHEMBL6120973 (J Med Chem, 2024)

Columns and labels:
[1] = Cytotoxicity against human MT4 cells assessed as reduction in cell viability measured after 5 days by MTT assay; details: MT4 cells
[2] = Selectivity index, ratio of CC50 for human MT4 cells to EC50 for wild type HIV-1 IIIB infected in human MT4 cellS
[3] = system: Human immunodeficiency virus 1; experiment: Antiviral activity against wildtype HIV-1 IIIB infected in human MT4 cells assessed as protection against virus-induced cytopathic effect incubated for 5 days by MTT assay; assay type: functional, organism-based; details: Human immunodeficiency virus 1, IIIB, MT4, 120 h
[4] = system: Human immunodeficiency virus 1; experiment: Antiviral activity against HIV-1 harboring RT L100I mutant infected in human MT4 cells assessed as protection against virus-induced cytopathic effect incubated for 5 days by MTT assay; assay type: functional, organism-based; details: Human immunodeficiency virus 1, MT4, 120 h
[5] = system: Human immunodeficiency virus 1; experiment: Antiviral activity against HIV-1 harboring RT F227L/V106A double mutant infected in human MT4 cells assessed as protection against virus-induced cytopathic effect incubated for 5 days by MTT assay; assay type: functional, organism-based; details: Human immunodeficiency virus 1, MT4, 120 h
[6] = system: Human immunodeficiency virus 1; experiment: Antiviral activity against HIV-1 harboring RT E138K mutant infected in human MT4 cells assessed as protection against virus-induced cytopathic effect incubated for 5 days by MTT assay; assay type: functional, organism-based; details: Human immunodeficiency virus 1, MT4, 120 h
[7] = system: Human immunodeficiency virus 1; experiment: Antiviral activity against HIV-1 harboring RT Y181C mutant infected in human MT4 cells assessed as protection against virus-induced cytopathic effect incubated for 5 days by MTT assay; assay type: functional, organism-based; details: Human immunodeficiency virus 1, MT4, 120 h
[8] = system: Human immunodeficiency virus 1; experiment: Antiviral activity against HIV-1 harboring RT K103N mutant infected in human MT4 cells assessed as protection against virus-induced cytopathic effect incubated for 5 days by MTT assay; assay type: functional, organism-based; details: Human immunodeficiency virus 1, MT4, 120 h
[9] = system: Human immunodeficiency virus 1; experiment: Antiviral activity against HIV-1 harboring RT Y188L mutant infected in human MT4 cells assessed as protection against virus-induced cytopathic effect incubated for 5 days by MTT assay; assay type: functional, organism-based; details: Human immunodeficiency virus 1, MT4, 120 h
[10] = system: Human immunodeficiency virus 1; experiment: Antiviral activity against HIV-1 harboring RT K103N/Y181C double mutant infected in human MT4 cells assessed as protection against virus-induced cytopathic effect incubated for 5 days by MTT assay; assay type: functional, organism-based; details: Human immunodeficiency virus 1, MT4, 120 h
[11] = molecular target: Human immunodeficiency virus type 1 reverse transcriptase (Human immunodeficiency virus 1, UniProt Q72547); experiment: Inhibition of recombinant wild type HIV-1 Reverse transcriptase incubated for 40 mins by Pico-green reagent based fluorescence analysis

SMILES | CC50 at 120 h [1] | selectivity ratio ([2]; MT4 cells) | EC50 [3] | other results
N#Cc1ccc(Nc2ncc(-c3cncc(F)c3)c(Nc3c(F)cc(-c4ccncc4)cc3F)n2)cc1 | 156 µM | 9400 | 0.017 µM | –
Cc1cc(-c2ccncc2)cc(C)c1Nc1nc(Nc2ccc(C#N)cc2)ncc1-c1ccc(N(C)C)nc1 | > 39 µM | > 350 | 0.112 µM | –
Cc1cc(-c2cnc(Nc3ccc(C#N)cc3)nc2Nc2c(C)cc(-c3ccncc3)cc2C)cnc1Cl | > 242 µM | > 5560 | 0.043 µM | –
N#Cc1ccc(Nc2ncc(-c3ccc(F)nc3)c(Nc3c(F)cc(-c4ccncc4)cc3F)n2)cc1 | 167 µM | 18500 | 0.009 µM | –
Cc1cc(-c2cnc(Nc3ccc(C#N)cc3)nc2Nc2c(F)cc(-c3ccncc3)cc2F)cnc1Cl | > 238 µM | > 1560 | 0.153 µM | –
COc1ncc(-c2cnc(Nc3ccc(C#N)cc3)nc2Nc2c(C)cc(-c3ccncc3)cc2C)cc1N | 81.1 µM | 11300 | 0.007 µM | EC50 [4]: 0.048 µM; EC50 [5]: 1.1 µM; EC50 [6]: 0.014 µM; EC50 [7]: 0.031 µM; EC50 [8]: 0.01 µM; EC50 [9]: 0.066 µM; EC50 [10]: 0.114 µM
N#Cc1ccc(Nc2ncc(-c3ccsc3)c(Nc3c(F)cc(-c4ccncc4)cc3F)n2)cc1 | 72.1 µM | 10100 | 0.007 µM | IC50 [11]: 0.073 µM
Cc1cc(-c2cnc(Nc3ccc(C#N)cc3)nc2Nc2c(F)cc(-c3ccncc3)cc2F)ccn1 | 162 µM | 8090 | 0.02 µM | –
N#Cc1ccc(Nc2ncc(-c3cccnc3)c(Nc3c(F)cc(-c4ccncc4)cc3F)n2)cc1 | > 41.9 µM | > 2250 | 0.019 µM | –
N#Cc1ccc(Nc2ncc(-c3ccnc(Cl)c3)c(Nc3c(F)cc(-c4ccncc4)cc3F)n2)cc1 | 103 µM | 14100 | 0.007 µM | IC50 [11]: 0.138 µM
N#Cc1ccc(Nc2ncc(-c3cncc(Cl)c3)c(Nc3c(F)cc(-c4ccncc4)cc3F)n2)cc1 | 159 µM | 9340 | 0.017 µM | –
Cc1cncc(-c2cnc(Nc3ccc(C#N)cc3)nc2Nc2c(C)cc(-c3ccncc3)cc2C)c1 | 11.5 µM | 656 | 0.018 µM | –
Cc1cncc(-c2cnc(Nc3ccc(C#N)cc3)nc2Nc2c(F)cc(-c3ccncc3)cc2F)c1 | 104 µM | 2540 | 0.041 µM | –
Cc1cc(-c2cnc(Nc3ccc(C#N)cc3)nc2Nc2c(F)cc(-c3ccncc3)cc2F)cc(C)n1 | 97.9 µM | 984 | 0.1 µM | –
N#Cc1ccc(Nc2ncc(-c3ccnc(F)c3)c(Nc3c(F)cc(-c4ccncc4)cc3F)n2)cc1 | 121 µM | 12300 | 0.01 µM | IC50 [11]: 0.127 µM
N#Cc1ccc(Nc2ncc(-c3ccc(Cl)nc3)c(Nc3c(F)cc(-c4ccncc4)cc3F)n2)cc1 | 196 µM | 19100 | 0.01 µM | –
Cc1ccc(-c2cnc(Nc3ccc(C#N)cc3)nc2Nc2c(F)cc(-c3ccncc3)cc2F)cn1 | 194 µM | 7300 | 0.027 µM | –
Cc1cc(-c2cnc(Nc3ccc(C#N)cc3)nc2Nc2c(C)cc(-c3ccncc3)cc2C)cnc1F | > 249 µM | > 7640 | 0.033 µM | –
Cc1cc(-c2cnc(Nc3ccc(C#N)cc3)nc2Nc2c(C)cc(-c3ccncc3)cc2C)cc(C)n1 | 36.1 µM | 563 | 0.064 µM | –

SMILES | CC50 at 120 h [1] | selectivity ratio ([2]; MT4 cells) | EC50 [3] | other results
N#Cc1ccc(Nc2ncc(-c3ccco3)c(Nc3c(F)cc(-c4ccncc4)cc3F)n2)cc1 | > 42.9 µM | > 6300 | 0.007 µM | IC50 [11]: 0.077 µM
Cc1cc(-c2cnc(Nc3ccc(C#N)cc3)nc2Nc2c(F)cc(-c3ccncc3)cc2F)cnc1F | > 246 µM | > 9800 | 0.025 µM | –
Cc1cc(-c2ccncc2)cc(C)c1Nc1nc(Nc2ccc(C#N)cc2)ncc1-c1ccc(Cl)nc1 | 3.98 µM | 3990 | 0.001 µM | IC50 [11]: 0.175 µM
COc1ccc(-c2cnc(Nc3ccc(C#N)cc3)nc2Nc2c(F)cc(-c3ccncc3)cc2F)cn1 | 169 µM | 6430 | 0.026 µM | –
Cc1cc(-c2ccncc2)cc(C)c1Nc1nc(Nc2ccc(C#N)cc2)ncc1-c1cncc(F)c1 | > 257 µM | > 6000 | 0.043 µM | –
N#Cc1ccc(Nc2ncc(-c3ccc(N)nc3)c(Nc3c(F)cc(-c4ccncc4)cc3F)n2)cc1 | 143 µM | 5790 | 0.025 µM | –
COc1ccc(-c2cnc(Nc3ccc(C#N)cc3)nc2Nc2c(C)cc(-c3ccncc3)cc2C)cn1 | > 250 µM | > 3270 | 0.077 µM | –
N#Cc1ccc(Nc2ncc(-c3cncc(N)c3)c(Nc3c(F)cc(-c4ccncc4)cc3F)n2)cc1 | 167 µM | 2380 | 0.07 µM | –
COc1ncc(-c2cnc(Nc3ccc(C#N)cc3)nc2Nc2c(F)cc(-c3ccncc3)cc2F)cc1F | > 238 µM | > 4810 | 0.049 µM | –
COc1cc(-c2cnc(Nc3ccc(C#N)cc3)nc2Nc2c(F)cc(-c3ccncc3)cc2F)ccn1 | > 246 µM | > 12400 | 0.02 µM | –
COc1ncc(-c2cnc(Nc3ccc(C#N)cc3)nc2Nc2c(F)cc(-c3ccncc3)cc2F)cc1N | 215 µM | 4930 | 0.044 µM | –
N#Cc1ccc(Nc2ncc(-c3cccs3)c(Nc3c(F)cc(-c4ccncc4)cc3F)n2)cc1 | 23.4 µM | 2170 | 0.011 µM | IC50 [11]: 0.105 µM
N#Cc1ccc(Nc2ncc(-c3ccncc3)c(Nc3c(F)cc(-c4ccncc4)cc3F)n2)cc1 | > 41.9 µM | > 4360 | 0.01 µM | –
Cc1cc(-c2ccncc2)cc(C)c1Nc1nc(Nc2ccc(C#N)cc2)ncc1-c1ccc(C(F)(F)F)nc1 | > 3720 µM | > 822 | 0.045 µM | –
CN(C)c1ccc(-c2cnc(Nc3ccc(C#N)cc3)nc2Nc2c(F)cc(-c3ccncc3)cc2F)cn1 | 52.9 µM | 714 | 0.074 µM | –
Cn1c(Cn2ccc(C(F)(F)F)c(Oc3cc(Cl)cc(C#N)c3)c2=O)n[nH]c1=O [DORAVIRINE] | – | – | – | IC50 [11]: 0.033 µM
O=C1Nc2ccc(Cl)cc2[C@@](C#CC2CC2)(C(F)(F)F)O1 [EFAVIRENZ] | > 7.49 µM | – | 0.045 µM | EC50 [4]: 0.024 µM; EC50 [5]: 0.181 µM; EC50 [7]: 0.006 µM; EC50 [8]: 0.059 µM
Cc1ccnc2c1NC(=O)c1cccnc1N2C1CC1 [NEVIRAPINE] | > 15 µM | – | – | EC50 [4]: 1.79 µM; EC50 [5]: > 10 µM; EC50 [6]: 0.142 µM; EC50 [9]: > 10 µM; EC50 [10]: > 10 µM
Cc1cn([C@H]2C[C@H](N=[N+]=[N-])[C@@H](CO)O2)c(=O)[nH]c1=O [ZIDOVUDINE] | > 248 µM | – | 0.026 µM | EC50 [5]: 0.028 µM; EC50 [6]: 0.03 µM; EC50 [7]: 0.037 µM; EC50 [8]: 0.025 µM; EC50 [9]: 0.033 µM; selectivity ratio ([2]; mt4): > 9710
